# Where two headings read alike, the source gives them in different places. Marks after values point to notes of the source that are not given here.
# Tests used:
# Sprague Dawley rats [1] = test: Palatability (choice) trial, peanut butter bait; assay type: in vivo, rat (Sprague Dawley); details: 2 days
# Sprague Dawley rats [2] = test: Palatability (no-choice) trial, peanut butter bait; assay type: in vivo, rat (Sprague Dawley); details: 1% w/w toxicant in peanut butter bait; for mortality at 1 %: po
# Text: In the palatability trials, Sprague Dawley rats (ca. 250 g) were presented with 1% w/w compound (n=6) or 0.5% w/w compound (n=5) in a peanut butter bait, following 3 days ‘pre-baiting’ with a peanut butter formulation free of toxicant.
# rat caudal artery = test: Rat caudal artery ring contractile force (vasoconstrictory activity); parameters: species or system rat (male Wistar); details: for Emax: Table 1, read-out: Vasoconstriction: maximum contractile effect as a % of 90 mM KCl contraction
# Procedure, shortened: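 Endothelium-denuded caudal artery rings from male Wistar rats were held at 2 g resting tension in Tyrode solution (37° C, pH 7.35, 95% O2/CO2) and isometric force was recorded. Compounds were tested at 50 μM, with contraction expressed as percent of the 90 mM KCl response.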
# Sprague Dawley rats [3] = test: In vivo lethality, intravenous injection via the tail; parameters: species or system rat (Sprague Dawley); details: 20 mg/Kg, rat, n = 2
# Protocol: Sprague Dawley rats (150-200 g) were used to appraise the rodenticidal activity of the compounds put forward for in vivo evaluation. Briefly, prior to administration the compounds were dissolved in 0.2 M hydrochloric acid (5% DMSO overall), to the desired dose, and without delay either injected intravenously, via the tail, or orally gavaged. All treated animals were housed in a quiet room and monitored every minute (i.v) or every 15 min (oral) to verify early signs of toxicity.
# Sprague Dawley rats [4] = test: In vivo lethality, oral gavage; parameters: species or system rat (Sprague Dawley); details: rat; for Time to Death (min) / Onset of Symptoms: mean time; for Onset of Symptoms: visual signs of distress consistent with NRB-like symptoms; for In vivo lethality (oral): n = 2
# Procedure, shortened: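 Sprague Dawley rats (150-200 g) received compound dissolved in 0.2 M HCl (5% DMSO overall) at the desired dose, by oral gavage or tail-vein i.v. injection. Animals were watched for early toxicity signs every minute (i.v.) or every 15 min (oral).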
# [5] = Simulated gastric fluid (SGF) hydrolytic stability assay; assay type: physicochemical; details: footnote c: compounds not exhibiting vasoconstriction; simulated gastric fluid without pepsin, pH 1.2, 37° C., 1 h, n = 3
# Protocol: All in vivo candidates were subjected to a 1 h hydrolytic stability appraisal in the presence of SGF, without pepsin (United States Pharmacopoeia 24) [200 μL total volume, sodium chloride solution (0.03 M) acidified to pH 1.2 with concentrated hydrochloric acid, at a final compound concentration of 200 μM, 2.5% DMSO overall, 37° C., n=3], to investigate any potential chemical instabilities that may occur in the acidic environment of the stomach prior to uptake. Analysis was by RP-LCMS at an injection volume of 5 μL.
# [6] = Rat serum assay (release of NRB or NRB analogue); assay type: in vitro ADME; details: 80% rat serum, 37° C., 3 h, n = 3
# Protocol: The hydrolytic stability of compounds of the invention in rat blood was evaluated using in vitro rat serum obtained from Sigma-Aldrich and stored at −78° C. Similar assay conditions to those reported by Li Di and co-workers (Int. J. Pharm. 2005, 297, 110-119) were followed [200 μL total volume, 80% rat serum (diluting with phosphate buffer (0.1 M, pH 7.4)), at a final compound concentration of 200 μM, 2.5% DMSO overall, 37° C., 3 h, n=3] using an Eppendorf Thermomixer Compact. Reactions were quenched by transferring 150 μL of the incubation mixture to 450 μL of ice-cold acetonitrile, affording a final compound/NRB or NRB analogue concentration of 50 μM. Samples were centrifuged at 14,500×g for 15 min using an Eppendorf Mini Spin Plus centrifuge, at ambient temperature. 400 μL of the supernatant was removed and transferred to clean tubes. Analysis was by RP-LCMS at an injection volume of 20 μL. Each compound and corresponding NRB or NRB analogue were subjected to external calibration curves at 50 μM, 100 μM and 200 μM to allow conversion of absorbance unit area into nmol, from which the percentage of NRB or NRB analogue released from each compound was calculated.
# [7] = choice of EPA diet (20 g) and bait with 1% w/w toxicant (20 g), n = 12, Table 14
# [8] = choice of standard lab pellets (20 g) and bait with 1% w/w toxicant (20 g), n = 12, Table 13
# [9] = choice of EPA diet (20 g) and bait with 1% w/w toxicant (20 g), n = 2, Table 15
# [10] = n = 6, 3 male and 3 female rats, Table 11, read-out: No of deaths (converted)
SMILES,Emax (rat caudal artery),"Vasoconstriction: maximum contractile effect as a % of 90 mM KCl contraction (rat caudal artery; Table 4, pre-cleavage, n = 3)",Time to Death (min) (Sprague Dawley rats [4]; 20 mg/Kg),Onset of Symptoms (Sprague Dawley rats [4]; 20 mg/Kg),In vivo lethality (oral) (Sprague Dawley rats [4]; 40 mg/Kg),melting point,No of deaths (Sprague Dawley rats [1]; [9]),other results
"COc1ccc(C=CC(=O)OCCN2C(=O)C3C4C=C(C(O)(c5ccccc5)c5ccccn5)C(C4=C(c4ccccc4)c4ccccn4)C3C2=O)cc1 (stereo not drawn) [Compound 126, 5-(α-Hydroxy-α-2-pyridylbenzyl)-N-[2′-(4″-methoxycinnamoyloxy)ethyl]-7-(α-2-pyridylbenzylidene)-5-norbornene-2,3-dicarboximide]",0%,0%,50^d min,25 min,"yes^h,i",–,–,"No of deaths (Sprague Dawley rats [1]; [7]): 8/11^b; No of deaths (Sprague Dawley rats [1]; [8]): 10/12; mortality at 1 % (Sprague Dawley rats [2]; n = 6, male rats only, Table 10, read-out: No of deaths (converted)): 83.3%; In vivo lethality (i.v.) (Sprague Dawley rats [3]): yes^f; In vivo lethality (oral) (Sprague Dawley rats [4]; 20 mg/Kg): yes^h,i"
"COc1ccc(C(=O)OCN2C(=O)C3C4C=C(C(O)(c5ccccc5)c5ccccn5)C(C4=C(c4ccccc4)c4ccccn4)C3C2=O)cc1 (stereo not drawn) [Compound 15, 5-(α-Hydroxy-α-2-pyridylbenzyl)-N-p-methoxybenzoyloxymethyl-7-(α-2-pyridylbenzylidene)-5-norbornene-2,3-dicarboximide]",0%,0%,–,–,–,94 to 112 °C,–,–
"O=C1NC(=O)C2C3C(C(O)(c4ccccc4)c4ccccn4)=CC(C3=C(c3ccccc3)c3ccccn3)C12 (stereo not drawn) [NRB, 5-(α-Hydroxy-α-2-pyridylbenzyl)-7-(α-2-pyridylbenzylidene)-5-norbornene-2,3-dicarboximide, reference compound]",132%,–,–,–,–,–,5/12,"No of deaths (Sprague Dawley rats [1]; [7]): 2/12; No of deaths (Sprague Dawley rats [1]; [8]): 5/12; Vasoconstriction: maximum contractile effect as a % of 90 mM KCl contraction (rat caudal artery; Table 5, compounds of formula (III)): ^aMaximum contractile effect as a % of 90 mM KCl contraction (rat caudal artery); stereoisomeric mixture of NRB = 132%.; Vasoconstriction: maximum contractile effect as a % of 90 mM KCl contraction (rat caudal artery; Table 7, compounds of formula (V)): ^aMaximum contractile effect as a % of 90 mM KCl contraction (rat caudal artery); stereoisomeric mixture of NRB = 132%."
"O=C(OCN1C(=O)C2C3C=C(C(O)(c4ccccc4)c4ccccn4)C(C3=C(c3ccccc3)c3ccccn3)C2C1=O)c1ccccc1 (stereo not drawn) [Compound 12, N-Benzoyloxymethyl-5-(α-hydroxy-α-2-pyridylbenzyl)-7-(α-2-pyridylbenzylidene)-5-norbornene-2,3-dicarboximide]",≥ 132%,≧132%,–,–,–,94 to 96 °C,–,–
"COc1cccc(C(=O)OCN2C(=O)C3C4C=C(C(O)(c5ccccc5)c5ccccn5)C(C4=C(c4ccccc4)c4ccccn4)C3C2=O)c1 (stereo not drawn) [Compound 14, 5-(α-Hydroxy-α-2-pyridylbenzyl)-N-m-methoxybenzoyloxymethyl-7-(α-2-pyridylbenzylidene)-5-norbornene-2,3-dicarboximide]",0%,0%,–,–,–,171 to 180 °C,–,–
"O=C(C=Cc1ccccc1)OCN1C(=O)C2C3C=C(C(O)(c4ccccc4)c4ccccn4)C(C3=C(c3ccccc3)c3ccccn3)C2C1=O (stereo not drawn) [Compound 19, N-Cinnamoyloxymethyl-5-(α-hydroxy-α-2-pyridylbenzyl)-7-(α-2-pyridylbenzylidene)-5-norbornene-2,3-dicarboximide]",0%,0%,90^d min,20 min,"yes^h,i",–,–,"No of deaths (Sprague Dawley rats [1]; [7]): 1/12; No of deaths (Sprague Dawley rats [1]; [8]): 2/12; No of deaths (Sprague Dawley rats [2]; n = 6, male rats only, Table 10): 5/5^b; In vivo lethality (i.v.) (Sprague Dawley rats [3]): yes^f; In vivo lethality (oral) (Sprague Dawley rats [4]; 20 mg/Kg): yes^h,i"
"CC(C)(C)C(=O)OCN1C(=O)C2C3C=C(C(O)(c4ccccc4)c4ccccn4)C(C3=C(c3ccccc3)c3ccccn3)C2C1=O (stereo not drawn) [Compound 8, 5-(α-Hydroxy-α-2-pyridylbenzyl)-N-pivaloyloxymethyl-7-(α-2-pyridylbenzylidene)-5-norbornene-2,3-dicarboximide]",≥ 132%,≧132%,–,–,–,95 to 98 °C,–,–
"Cc1ccc(CC(=O)OCN2C(=O)C3C4C=C(C(O)(c5ccccc5)c5ccccn5)C(C4=C(c4ccccc4)c4ccccn4)C3C2=O)cc1 (stereo not drawn) [Compound 324, 5-(α-Hydroxy-α-2-pyridylbenzyl)-N-4-methylphenylacetoyloxymethyl-7-(α-2-pyridylbenzylidene)-5-norbornene-2,3-dicarboximide]",17%,17%,60^d min,15 min,"yes^h,i",–,5/12,"mortality at 1 % (Sprague Dawley rats [2]; [10]): 100%; In vivo lethality (oral) (Sprague Dawley rats [4]; 20 mg/Kg): yes^h,i"
"CCc1ccc(C=CC(=O)OCCN2C(=O)C3C4C=C(C(O)(c5ccccc5)c5ccccn5)C(C4=C(c4ccccc4)c4ccccn4)C3C2=O)cc1 (stereo not drawn) [Compound 335, N-[2′-(4″-Ethylcinnamoyloxy)ethyl]-5-(α-hydroxy-α-2-pyridylbenzyl)-7-(α-2-pyridylbenzylidene)-5-norbornene-2,3-dicarboximide]",19%,19%,90^e min,15 min,yes^h,–,7/12,mortality at 1 % (Sprague Dawley rats [2]; [10]): 100%
"O=C(C=Cc1ccc(Cl)c(Cl)c1)OCCN1C(=O)C2C3C=C(C(O)(c4ccccc4)c4ccccn4)C(C3=C(c3ccccc3)c3ccccn3)C2C1=O (stereo not drawn) [Compound 134, N-[2′-(3″,4″-Dichlorocinnamoyloxy)ethyl]-5-(α-hydroxy-α-2-pyridylbenzyl)-7-(α-2-pyridylbenzylidene)-5-norbornene-2,3-dicarboximide]",0%,0%,–,–,–,99 to 104 °C,–,–
"CC(=Cc1ccccc1)C(=O)OCCN1C(=O)C2C3C=C(C(O)(c4ccccc4)c4ccccn4)C(C3=C(c3ccccc3)c3ccccn3)C2C1=O (stereo not drawn) [Compound 121, 5-(α-Hydroxy-α-2-pyridylbenzyl)-N-2′-α-methylcinnamoyloxyethyl-7-(α-2-pyridylbenzylidene)-5-norbornene-2,3-dicarboximide]",–,0%,not lethal,20 min,–,–,3/12,"% NRB released, Hydrolytic Stability (simulated gastric fluid) [5]: 0^c %; No of deaths (Sprague Dawley rats [2]; n = 6, 3 male and 3 female rats, Table 11): 6/6; % NRB released, Rat Serum [6]: 19.1 ± 1.3%; Vasoconstriction: maximum contractile effect as a % of 90 mM KCl contraction (rat caudal artery; Table 1, compound at 50 μM): 0%"
